Series [1] is described as follows: EFdA rat PK studies (SC and IM). Format: in vivo, Wistar Han rats. The source says:
A total of seven naïve male Wistar Han rats, 200-250 g, were received from the supplier equipped with a surgically-implanted jugular vein catheter (JVC) for blood sample collection. Following an acclimation period, the animals were assigned to the study based on acceptable health as determined by a staff veterinarian and catheter patency. Animals were placed into two groups of 3 rats per group. Fasting of the animals before or after dosing was not required.
On Day 1 each animal in Group 1 received a single subcutaneous injection of prepared test article at a target dose level of 20 mg/kg and at a dose volume of 0.33 mL/kg. Each animal in Group 2 received a single intramuscular injection of prepared test article into a thigh muscle at a target dose level of 20 mg/kg and at a dose volume of 0.33 mL/kg. The injection sites were shaved prior to dosing and identified with an indelible marker for daily monitoring during the study. The animals were manually restrained for dosing and were not sedated. The dose suspension was mixed well by inversion before each dose to ensure homogeneity. […] In addition, all animals are monitored twice daily by the veterinary staff for clinical abnormalities. […]
The PK plasma samples were analyzed by the Testing Facility to determine the concentration of EFdA using an LC-MS/MS Research Grade Assay (RGA-1) with sensitivity to 0.1 ng/mL. […]

Series [2] deals with HIV pseudotyped virus (NL4-3 provirus, luciferase reporter), WT. Description: PSV (pseudotyped virus) assay, WT. The conditions noted are these: Human immunodeficiency virus 1, NL43, 72 h, read-out: WT IC50.
Experimental: A pseudotyped virus assay (PSV) was used to assess the potency of the HIV inhibitor.
The PSV assay was performed by using U373 cells stably transformed to express human CD4, the primary receptor for HIV entry and either human CXCR4 or human CCR5 which are the co-receptors required for HIV entry as target cells for infection. […] This dose-range was applied to U373 cells and the pre-made pseudotyped virus added. The amount of luciferase signal produced after 3 days of culture was used to reflect the level of pseudotyped virus infection. An IC50, or the concentration of inhibitor required to reduce PSV infection by 50% from the infection containing no inhibitor was calculated. […] IC50 values were determined from a 10 point dose response curve using 3-4-fold serial dilution for each compound, which spans a concentration range>1000 fold.
These values are plotted against the molar compound concentrations using the standard four parameter logistic equation: y=((Vmax*x^n)/(K^n+x^n))+Y2
In series [3] the test system is HIV pseudotyped virus, M184V. The format is cell-based. The conditions noted are these: U373 cells (CD4, CXCR4 or CCR5), luciferase signal after 3 days.

Regarding `C#C[C@]1(CO)O[C@@H](n2cnc3c(N)nc(F)nc32)C[C@@H]1O` [EFdA, (2R,3S,5R)-5-(6-amino-2-fluoro-9H-purin-9-yl)-2-ethynyl-2-(hydroxymethyl)tetrahydrofuran-3-ol], the “Clinical observations and injection site reactions” value in series [1] (20 mg/kg single SC or IM injection, study period to Day 29) is “No abnormal clinical observations and no injection site reactions”. The “Detectable duration of exposure of EFdA” value in series [1] (IM and SC administration of 20 mg/kg EFdA) is given as “less than 8 days”.
Consider `C#C[C@]1(COC(=O)C2CCCCC2)O[C@@H](n2cnc3c(N)nc(F)nc32)C[C@@H]1O` [Example 1, ((2R,3S,5R)-5-(6-amino-2-fluoro-9H-purin-9-yl)-2-ethynyl-3-hydroxytetrahydrofuran-2-yl)methyl Cyclohexanecarboxylate], for which the results for the IC50 in series [2] and in series [3] were 2 nM and 8 nM, respectively.
On the same counts, the results for `C#C[C@]1(COC(=O)CCCC)O[C@@H](n2cnc3c(N)nc(F)nc32)C[C@@H]1OC(=O)CC` [Example 24, ((2R,3S,5R)-5-(6-amino-2-fluoro-9H-purin-9-yl)-2-ethynyl-3-(propionyloxy)tetrahydrofuran-2-yl)methyl Pentanoate] are 66 nM and 351 nM.
Take `C#C[C@]1(COC(=O)Cc2ccccc2)O[C@@H](n2cnc3c(N)nc(F)nc32)C[C@@H]1O` [Example 3, [(2R,3S,5R)-5-(6-amino-2-fluoro-9H-purin-9-yl)-2-ethynyl-3-hydroxyoxolan-2-yl]methyl 2-phenylacetate]: the IC50 – broadly, the concentration that inhibits the measured activity by half – in series [2] was 2 nM; in series [3], 10 nM.
For `C#C[C@@]12COC(=O)CCCCCCCCCCCCC(=O)O[C@H]1C[C@H](n1cnc3c(N)nc(F)nc31)O2` [Example 33, (2R,3aS,20aR)-2-(6-amino-2-fluoro-9H-purin-9-yl)-20a-ethynylhexadecahydro-2H-furo[3,2-b][1,5]dioxacyclononadecine-5,18-dione], in that order: 17 nM and 86 nM.
On the same counts, the results for `C#C[C@]1(COC(=O)CCCC)O[C@@H](n2cnc3c(N)nc(F)nc32)C[C@@H]1OC(=O)CCCC` [Example 23, (2R,3S,5R)-5-(6-amino-2-fluoro-9H-purin-9-yl)-2-ethynyl-2-((pentanoyloxy)methyl)tetrahydrofuran-3-yl Pentanoate] are 11 nM and 68 nM.
On the same counts, the results for `C#C[C@]1(COC(=O)CNC(=O)CCCCCCCCCCCCC)O[C@@H](n2cnc3c(N)nc(F)nc32)C[C@@H]1O` [Example 35, ((2R,3S,5R)-5-(6-amino-2-fluoro-9H-purin-9-yl)-2-ethynyl-3-hydroxytetrahydrofuran-2-yl)methyl Tetradecanoylglycinate] are 1 nM and 9 nM.
Regarding `C#C[C@]1(COC(=O)COCCOC)O[C@@H](n2cnc3c(N)nc(F)nc32)C[C@@H]1O` [Example 6, ((2R,3S,5R)-5-(6-amino-2-fluoro-9H-purin-9-yl)-2-ethynyl-3-hydroxytetrahydrofuran-2-yl)methyl 2-(2-methoxyethoxy)acetate], the IC50 in series [2] was 4 nM; in series [3] it was 25 nM.

Source of the values: patent publication US12240853B2, “Compounds useful in HIV therapy” (GlaxoSmithKline Intellectual Property (No.2) Limited, priority 2019, dated 2025).
